From US20170217976A1, “6-(AMINO ACID)-MORPHINAN DERIVATIVES IN COMBINATION WITH PERMEATION […] FOR USE AS AN ORALLY, […], TRA[…] NASALLY AD[…]” (C[…], priority 2014, published 2017)
Where two headings read alike, the source gives them in different places.

Legend:
[1] = biological target: T1, MOR (Rattus norvegicus, UniProt P33535); experiment: Opioid receptor binding, MOR, rat brain membranes
T1 construct: from tissue

[2] = biological target: T2, DOR (Rattus norvegicus, UniProt P33533); experiment: Opioid receptor binding, DOR, rat brain membranes
T2 construct: from tissue
T2 sequence (P33533 whole entry): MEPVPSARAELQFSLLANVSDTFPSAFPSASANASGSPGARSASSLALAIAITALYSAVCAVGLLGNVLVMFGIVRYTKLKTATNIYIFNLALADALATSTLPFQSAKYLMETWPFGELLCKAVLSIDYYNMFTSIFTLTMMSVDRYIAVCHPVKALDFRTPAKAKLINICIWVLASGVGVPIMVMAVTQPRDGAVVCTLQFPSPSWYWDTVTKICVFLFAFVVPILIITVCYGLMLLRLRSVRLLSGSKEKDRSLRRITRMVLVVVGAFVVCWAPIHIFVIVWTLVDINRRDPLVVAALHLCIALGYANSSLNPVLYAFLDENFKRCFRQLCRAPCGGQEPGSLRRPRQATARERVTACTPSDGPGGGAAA

[3] = biological target: T3, KOR (Cavia porcellus, UniProt P41144); experiment: Opioid receptor binding, KOR, guinea pig brain membranes
T3 construct: from tissue
T3 sequence (P41144 whole entry): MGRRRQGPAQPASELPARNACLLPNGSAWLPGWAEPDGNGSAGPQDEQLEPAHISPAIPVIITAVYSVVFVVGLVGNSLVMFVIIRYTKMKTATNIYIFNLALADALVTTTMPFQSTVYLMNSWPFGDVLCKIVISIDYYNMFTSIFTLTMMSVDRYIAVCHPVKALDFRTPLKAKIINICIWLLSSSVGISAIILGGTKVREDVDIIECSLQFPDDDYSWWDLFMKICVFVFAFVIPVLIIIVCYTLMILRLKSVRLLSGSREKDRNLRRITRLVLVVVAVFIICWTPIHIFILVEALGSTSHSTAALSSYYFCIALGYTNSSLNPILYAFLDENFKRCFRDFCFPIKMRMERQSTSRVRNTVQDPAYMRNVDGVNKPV

[4] = Binding Ki MOR, Table 2-6, rat brain membranes
[5] = Binding Ki DOR, Table 2-6, rat brain membranes
[6] = Binding Ki KOR, Table 2-6, guinea pig brain membranes
[7] = Binding Ki (nM) MOR, in vitro binding assay, rat brain membranes
[8] = Binding Ki MOR, Table 1-4, rat brain membranes
[9] = Binding Ki (nM) DOR, in vitro binding assay, rat brain membranes
[10] = Binding Ki DOR, Table 1-4, rat brain membranes
[11] = Binding Ki (nM) KOR, in vitro binding assay, guinea pig brain membranes
[12] = Binding Ki KOR, Table 1-4, guinea pig brain membranes
[13] = in vitro binding assay, rat brain membranes, read-out: Binding Ki (nM) MOR
[14] = in vitro binding assay, rat brain membranes, read-out: Binding Ki (nM) DOR
[15] = in vitro binding assay, guinea pig brain membranes, read-out: Binding Ki (nM) KOR

T1 sequence (P33535 whole entry): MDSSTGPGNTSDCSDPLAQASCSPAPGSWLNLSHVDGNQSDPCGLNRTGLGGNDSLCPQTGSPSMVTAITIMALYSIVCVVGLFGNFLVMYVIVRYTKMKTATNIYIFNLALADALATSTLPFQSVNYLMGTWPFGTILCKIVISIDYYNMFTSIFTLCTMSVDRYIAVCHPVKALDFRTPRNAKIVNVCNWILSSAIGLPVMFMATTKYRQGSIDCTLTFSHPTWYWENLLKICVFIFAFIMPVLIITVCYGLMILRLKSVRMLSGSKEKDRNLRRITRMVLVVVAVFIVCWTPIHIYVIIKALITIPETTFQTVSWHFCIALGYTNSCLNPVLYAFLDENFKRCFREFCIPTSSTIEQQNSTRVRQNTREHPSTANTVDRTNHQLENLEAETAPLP

SMILES	Ki [1, 4]	Ki [2, 5]	Ki [3, 6]	Ki [2, 9]	Ki [2, 10]	Ki [3, 11]	Ki [3, 12]	also measured
CO[C@@]12CC[C@H](NCC(=O)OC(C)(C)C)[C@@H]3Oc4c(O)ccc5c4[C@@]31CCN(CC1CC1)[C@@H]2C5 [61-tBu ester]	0.43 nM	0.5 nM	1.41 nM					
CO[C@@]12CC[C@H](N[C@@H](CC(C)C)C(=O)OC(C)(C)C)[C@@H]3Oc4c(O)ccc5c4[C@@]31CCN(CC1CC1)[C@@H]2C5 [76-tBu ester]	0.13 nM	0.092 nM	0.8 nM					
CO[C@@]12CC[C@@H](NCCCC(=O)OC(C)(C)C)[C@@H]3Oc4c(O)ccc5c4[C@@]31CCN(CC1CC1)[C@@H]2C5 [66-tBu ester]	2.13 nM	3.78 nM	2.81 nM					
COC12CCC(NC(CCC(=O)O)C(=O)O)C3Oc4c(O)ccc5c4C31CCN(CC1CC1)C2C5 (stereo not drawn) [Compound 74]	1.93 nM	3.61 nM	6.66 nM					Ki ([1]; Binding Ki MOR, Table 1-6, rat brain membranes): 1.93 nM; Ki ([2]; Binding Ki DOR, Table 1-6, rat brain membranes): 3.61 nM; Ki ([3]; Binding Ki KOR, Table 1-6, guinea pig brain membranes): 6.66 nM
CC(C)(C)OC(=O)[C@H](Cc1ccccc1)N[C@H]1CC[C@@]2(O)[C@H]3Cc4ccc(O)c5c4[C@@]2(CCN3CC2CC2)[C@H]1O5 [59-tBu ester]	1 nM	2.15 nM	5 nM					
CC[C@H](C)[C@H](N[C@H]1CC[C@@]2(OC)[C@H]3Cc4ccc(O)c5c4[C@@]2(CCN3C)[C@H]1O5)C(=O)O [Compound 42]				3.2 nM	3.2 nM	131 nM	131 nM	Ki [1, 7]: 0.84 nM; Ki [1, 8]: 0.84 nM
CO[C@@]12CC[C@H](N[C@H](C(=O)OC(C)(C)C)C(C)C)[C@@H]3Oc4c(O)ccc5c4[C@@]31CCN(CC1CC1)[C@@H]2C5 [68-tBu ester]								Ki ([1]; Table 2-6, rat brain membranes, read-out: Binding Ki MOR): 1.81 nM; Ki ([2]; Table 2-6, rat brain membranes, read-out: Binding Ki DOR): 0.85 nM; Ki ([3]; Table 2-6, guinea pig brain membranes, read-out: Binding Ki KOR): 3.13 nM
CO[C@@]12CC[C@H](N[C@@H](CC(N)=O)C(=O)OC(C)(C)C)[C@@H]3Oc4c(O)ccc5c4[C@@]31CCN(C)[C@@H]2C5 [26-t-Bu ester]								Ki [1, 13]: 0.45 nM; Ki [2, 14]: 0.33 nM; Ki [3, 15]: 5.33 nM
COC12CCC(NCCC(=O)O)C3Oc4c(O)ccc5c4C31CCN(C)C2C5 (single isomer, unassigned) [Compound 22]				13.9 nM	13.9 nM	71.4 nM	71.4 nM	Ki [1, 7]: 1.04 nM; Ki [1, 8]: 1.04 nM
COC12CCC(NC(C(=O)O)C(C)C)C3Oc4c(O)ccc5c4C31CCN(C)C2C5 (single isomer, unassigned) [Compound 31]				1.68 nM	1.68 nM	159 nM	159 nM	Ki [1, 7]: 1.02 nM; Ki [1, 8]: 1.02 nM
CO[C@@]12CC[C@H](N[C@@H](C(=O)OC(C)(C)C)C(C)C)[C@@H]3Oc4c(O)ccc5c4[C@@]31CCN(C)[C@@H]2C5 [30-t-Bu ester]								Ki [1, 13]: 0.11 nM; Ki [2, 14]: 0.093 nM; Ki [3, 15]: 22.7 nM
COC12CCC(NC(C)C(=O)O)C3Oc4c(O)ccc5c4C31CCN(C)C2C5 (single isomer, unassigned) [Compound 1]				26.9 nM	26.9 nM	142 nM	142 nM	
CO[C@@]12CC[C@H](NCCCC(=O)OC(C)(C)C)[C@@H]3Oc4c(O)ccc5c4[C@@]31CCN(C)[C@@H]2C5 [15-t-Bu ester]				7.99 nM		8.82 nM		Ki [1, 7]: 0.22 nM
CO[C@@]12CC[C@H](NCCCC(=O)OC(C)(C)C)[C@@H]3Oc4c(O)ccc5c4[C@@]31CCN(CC1CC1)[C@@H]2C5 [65-tBu ester]	0.46 nM	2.69 nM	0.6 nM					
CO[C@@]12CC[C@H](NCC(=O)OC(C)(C)C)[C@@H]3Oc4c(O)ccc5c4[C@@]31CCN(C)[C@@H]2C5 [HS730-t-Bu ester]				0.54 nM		12.1 nM		
COC12CCC(NC(C)C(=O)O)C3Oc4c(O)ccc5c4C31CCN(C)C2C5 (single isomer, unassigned) [Compound 2]				7.71 nM	7.71 nM	63.7 nM	63.7 nM	
CO[C@@]12CC[C@@H](N[C@@H](C)C(=O)OC(C)(C)C)[C@@H]3Oc4c(O)ccc5c4[C@@]31CCN(CC1CC1)[C@@H]2C5 [72-tBu ester]		0.32 nM	9.68 nM					
COC12CCC(NC(C)C(=O)O)C3Oc4c(O)ccc5c4C31CCN(C)C2C5 (single isomer, unassigned) [Compound 54]					11.3 nM		142 nM	
COC12CCC(NC(C)C(=O)O)C3Oc4c(O)ccc5c4C31CCN(C)C2C5 (single isomer, unassigned) [Compound 53]					10.4 nM		71.5 nM	
CO[C@@]12CC[C@@H](N[C@@H](Cc3ccccc3)C(=O)OC(C)(C)C)[C@@H]3Oc4c(O)ccc5c4[C@@]31CCN(C)[C@@H]2C5 [4-t-Bu ester]								Ki [1, 7]: 2.56 nM; Ki [2, 14]: 2.66 nM
